BindingDB's records for doi:10.7270/Q23F4N3R (Burnham Center For Chemical Genomics, 2011)
Where a name gives a salt, the structure may show the parent alone. Where a SMILES comes first, the peptide text is derived from it. Bridges are numbered along the chain shown (N, C = ends). [ ]: non-standard residue; d: D form. The star is where a group is joined. X1 = CCC(C)C(N)C1=NC(C(=O)*)CS1; dOrn = NCCC[C@@H](N)C(=O)O

Assay: hexokinase 1 inhibition, dose response, selectivity assay for HKDC1 inhibitor project, biochemical (AID 504763)
Conditions: not given
Work on `CCOC(=O)c1ccc(NC2=CC(=O)C(=O)c3ccccc32)cc1` yielded an IC50 of over 80 µM. In the case of `Nc1c(Br)cc2c3c(cccc13)-c1ccccc1-2` [MLS002694423], the IC50 is reported as 9.59 µM. `Oc1ccc(O)c(Cc2nc3ccccc3[nH]2)c1` [SMR000298430] gave an IC50 of 7.03 µM. For `COc1ccc(S(=O)(=O)Nc2ccc(O)c3ccccc23)cc1` [4-methoxy-N-(4-oxidanylnaphthalen-1-yl)benzenesulfonamide], the IC50 was over 80 µM. `Cc1nc([N+](=O)[O-])c(Br)n1Cc1ccc(Cl)c(Cl)c1` [MLS000730654] gave an IC50 of over 80 µM. `Cc1ccc(Nc2c3[nH]cccc-3c(=O)n2-c2ccccc2C)cc1C` [SMR000028201] gave an IC50 of over 80 µM. Compound `O=C(CSc1n[nH]c(-c2cccnc2)n1)Nc1ccc([N+](=O)[O-])cc1Br` [N-(2-bromo-4-nitrophenyl)-2-[(5-pyridin-3-yl-1H-1,2,4-triazol-3-yl)sulfanyl]acetamide] has an IC50 of 5.71 µM. Work on `Cc1ccc2cc(CCNC(=O)c3ccc(S(=O)(=O)N4CCCCC4)cc3)c(O)nc2c1` yielded an IC50 of 6.04 µM. In the case of `CC(=O)N(C1=C(Cl)C(=O)c2ccccc2C1=O)C1CCCCC1`, the IC50 is reported as 10.2 µM. `Cc1cccc2c1=NC(=O)C=2NNC(=O)c1ccc(NS(=O)(=O)c2cccs2)cc1` [SMR001246714] gave an IC50 of 52.6 µM. For `CCCCC(CC)CNC(=N)NC(=N)NCCCCCCNC(=N)NC(=N)NCC(CC)CCCC` (configuration not stated) [MLS002153995], the IC50 was 38.7 µM. With `COC1=C(OC)C(=O)C(Sc2ccc3ccccc3c2)=CC1=O` [2,3-dimethoxy-5-naphthalen-2-ylsulfanylcyclohexa-2,5-diene-1,4-dione] the IC50 was 7.15 µM. Compound `Cc1ccc(C)c(-n2nnnc2Sc2nnnn2-c2ccccc2)c1` [1-(2,5-dimethylphenyl)-5-(1-phenyltetrazol-5-yl)sulfanyltetrazole] has an IC50 of over 80 µM. Compound `N#Cc1ccc(CSc2nnc(NC(=O)c3ccc4ncsc4c3)s2)cc1` [MLS000334839] has an IC50 of over 80 µM. `COc1ccc(NC(=O)CSc2ccc(-c3ccco3)nn2)c(OC)c1` [N-(2,4-dimethoxyphenyl)-2-[[6-(2-furanyl)-3-pyridazinyl]thio]acetamide] gave an IC50 of 5.55 µM. `COCc1cc(C2C(C(=O)c3ccco3)C(=O)C(=O)N2CCOCCO)ccc1O` (configuration not stated) [3-(furan-2-carbonyl)-4-hydroxy-1-[2-(2-hydroxyethoxy)ethyl]-2-[4-hydroxy-3-(methoxymethyl)phenyl]-2H-pyrrol-5-one] showed an IC50 of over 80 µM. Work on `O=C1C(N2CCOCC2)=C(n2nnc3ccccc32)C(=O)c2ccccc21` [2-(1-benzotriazolyl)-3-(4-morpholinyl)naphthalene-1,4-dione] yielded an IC50 of 7.58 µM. Compound `O=C(O)c1ccc(NC2=CC(=NS(=O)(=O)c3ccccc3)c3ccccc3C2=O)cc1` [SMR000313157] has an IC50 of 1.63 µM. For `O=C1C=CC(=O)c2c(O)c(CO)c(CO)c(O)c21` [5,8-dihydroxy-6,7-bis(hydroxymethyl)naphthalene-1,4-dione], the IC50 was over 80 µM. With `Cc1cccc(-n2c3nc(=O)[nH]c(=O)c-3cc3cc([N+](=O)[O-])ccc32)c1` the IC50 was over 80 µM. For `O=C(NCCc1ccccc1)C(c1cccs1)N(C(=O)CCl)c1ccc(Cl)cc1` (configuration not stated) [2-(4-chloro-N-(2-chloro-1-oxoethyl)anilino)-N-(2-phenylethyl)-2-thiophen-2-ylacetamide], the IC50 was over 80 µM. `CC1=NOC(=O)/C1=C\c1ccc(-c2ccc(Cl)cc2Cl)o1` [4-{[5-(2,4-dichlorophenyl)-2-furyl]methylene}-3-methyl-5(4H)-isoxazolone] showed an IC50 of over 80 µM. For `CCC(C)C(N)C1=NC(C(=O)N[C@@H](CC(C)C)C(=O)N[C@H](CCC(=O)O)C(=O)N[C@H](C(=O)N[C@H]2CCCCNC(=O)[C@H](CC(N)=O)NC(=O)[C@@H](CC(=O)O)NC(=O)[C@H](Cc3c[nH]cn3)NC(=O)[C@@H](Cc3ccccc3)NC(=O)[C@H]([C@@H](C)CC)NC(=O)[C@@H](CCCN)NC2=O)[C@@H](C)CC)CS1` (some centres not stated) [MLS002207255] (X1-L[dE]IK[dOrn]I[dF]H[dD]N; lactam 4-C), the IC50 was over 80 µM. `CCCc1nc2oc3c(NCCOCCO)ncnc3c2c2c1COC(C)(C)C2` [SMR000048002] showed an IC50 of 11.1 µM. Work on `CN(C)Cc1cc(O)c(CN(C)C)cc1O` [2,5-bis[(dimethylamino)methyl]benzene-1,4-diol] yielded an IC50 of over 80 µM. For `COc1cc(/C=C2/C(=O)NN(c3ccc(Cl)c(Cl)c3)C2=O)cc([N+](=O)[O-])c1O` [SMR000554908], the IC50 was over 80 µM. In the case of `O=C1C=CC(CN=Nc2ccc([N+](=O)[O-])cn2)C(O)=C1` (configuration not stated) [SMR001527138], the IC50 is reported as over 80 µM. `CCN(CC)CCCNC(=O)c1c(O)c2ccccc2n(Cc2ccccc2)c1=O` [N-[3-(diethylamino)propyl]-2-oxidanyl-4-oxidanylidene-1-(phenylmethyl)quinoline-3-carboxamide;hydrochloride] gave an IC50 of over 80 µM. Compound `COC1=C(Br)C(=O)c2ncccc2C1=O` [7-bromo-6-methoxyquinoline-5,8-dione] has an IC50 of 4.89 µM. `COC(=O)c1ccccc1NC1=CC(=NS(=O)(=O)c2ccc(C(=O)O)cc2)c2ccccc2C1=O` showed an IC50 of 5.77 µM. Work on `COc1ccc(NC(=O)CSc2ccc(-c3ccco3)nn2)cc1OC` [MLS-0374858.0001] yielded an IC50 of 17.7 µM. For `Cc1ccc(/N=C/C2=CC(Cc3ccccc3Cl)C=C([N+](=O)[O-])C2=O)c(O)c1` (configuration not stated), the IC50 was over 80 µM. `Cc1ccc(SC2=C(Sc3ccc(C)cc3)C(=O)c3ccccc3C2=O)cc1` [MLS000756557] gave an IC50 of 20 µM. With `COc1ncnc2c1oc1nc(C(C)C)c3c(c12)CC(C)(C)OC3` [MLS000084533] the IC50 was 12.5 µM. `Cc1ccc(S(=O)(=O)N=C2C=C(Sc3nnc[nH]3)C(=O)c3ccccc32)cc1` [4-Methyl-N-[4-oxo-3-(2H-[1,2,4]triazol-3-ylsulfanyl)-4H-naphthalen-1-ylidene]-benzenesulfonamide] showed an IC50 of 3.29 µM. Work on `COc1cc(/C=C2\SC(c3ccc(C)cc3)=NC2=O)ccc1O` [MLS000579809] yielded an IC50 of over 80 µM. `COC1=CC(/C=C(\C#N)c2nc3ccc(C)cc3[nH]2)C=C([N+](=O)[O-])C1=O` (configuration not stated) [(2Z,3E)-3-(3-methoxy-5-nitro-4-oxocyclohexa-2,5-dien-1-ylidene)-2-(5-methyl-1,3-dihydrobenzimidazol-2-ylidene)propanenitrile] gave an IC50 of 18 µM. Compound `Cc1[nH]c2ccccc2c1C1=CC(=O)C=CC1=O` has an IC50 of 9.71 µM. For `CCc1nc2sc3c(O)ncnc3c2c2c1CSC(C)(C)C2` [MLS000776813], the IC50 was 21.8 µM. Work on `O=S(=O)(O)c1ccc(O)c2cc(Nc3ccccc3)ccc12` yielded an IC50 of over 80 µM. Compound `COc1ccc(Cn2c(O)c3[nH]cccc-3c2=O)cc1` has an IC50 of over 80 µM. Work on `CC(=O)NC1C(=O)N(CCN2CCOCC2)c2ccc(F)cc21` (configuration not stated) [MLS001215963] yielded an IC50 of over 80 µM. `NS(=O)(=O)c1ccc(N=Nc2c(=O)[nH]n3c(=O)c4c([nH]c23)CCCC4)cc1` [SMR000231775] gave an IC50 of 12.4 µM. For `O=C1C(Cl)=C(Oc2ccccc2)C(=O)c2ccccc21` [2-chloro-3-phenoxynaphthalene-1,4-dione], the IC50 was 10 µM. For `CC(=O)n1cc(N(C(=O)CCl)c2ccc([N+](=O)[O-])cc2)c2ccccc21` [2-chloranyl-N-(1-ethanoylindol-3-yl)-N-(4-nitrophenyl)ethanamide], the IC50 was over 80 µM. `COC(=O)[C@@H]1[C@@H](C(=O)OC)C2(c3ccccc3-c3ccccc32)N(c2ccc(Cl)cc2)N1C#N` [(3'S,4'R)-1'-(4-chlorophenyl)-2'-cyanospiro[fluorene-9,5'-pyrazolidine]-3',4'-dicarboxylic acid dimethyl ester] gave an IC50 of over 80 µM. For `O=C1C=C(N2CCOCC2)c2ccccc2C1=O` [SMR000516584], the IC50 was 1.27 µM. Compound `O=C(O)c1ccc2ncsc2c1` [SMR000372672] has an IC50 of over 80 µM. With `O=C(NC1=CC(=O)c2ccccc2C1=O)c1ccccc1` [N-(1,4-dioxo-2-naphthalenyl)benzamide] the IC50 was 4.01 µM. Work on `CCOC(=O)c1ccc(NC(=O)CSc2n[nH]c(-c3ccncc3)n2)cc1` yielded an IC50 of 10.5 µM. In the case of `CC(=O)Nc1ccc(NC2=CC(=NS(=O)(=O)c3cccs3)c3ccccc3C2=O)cc1` [SMR000313158], the IC50 is reported as 4.2 µM. With `Cc1ccc(C)c(-n2c3nc(=O)[nH]c(=O)c-3cc3cc([N+](=O)[O-])ccc32)c1` [10-(2,5-Dimethyl-phenyl)-7-nitro-10H-pyrimido[4,5-b]quinoline-2,4-dione] the IC50 was over 80 µM.

Same assay, conditions: inactive by the depositor's call
With `CC(C)Nc1nnc(SCC(=O)Nc2ccc3c(c2)C(=O)c2ccccc2C3=O)s1` [MLS000390413] the IC50 was 22.3 µM. `CCOc1ccccc1Nc1nnc(SCc2nnc(-c3cc(OC)c(OC)c(OC)c3)o2)s1` [N-(2-ethoxyphenyl)-5-[[5-(3,4,5-trimethoxyphenyl)-1,3,4-oxadiazol-2-yl]methylthio]-1,3,4-thiadiazol-2-amine] showed an IC50 of 21.8 µM. Work on `COc1ccc(OC)c2nc(O)c(CCNC(=O)c3cc4ccccc4o3)cc12` [SMR000018515] yielded an IC50 of 23.8 µM. Compound `O=C(O)CSc1cc(NS(=O)(=O)c2cccc([N+](=O)[O-])c2)c2ccccc2c1O` [2-[1-hydroxy-4-[(3-nitrophenyl)sulfonylamino]naphthalen-2-yl]sulfanylacetic acid] has an IC50 of 29.4 µM. With `CCN(CC)Cc1cc(O)c(CN(CC)CC)cc1O` [2,5-bis(diethylaminomethyl)benzene-1,4-diol] the IC50 was 55.3 µM. `CCN(CC)CCNc1cc(C)nc2c1C(=O)C(=O)C=C2N1CCCCC1` [4-[2-(diethylamino)ethylamino]-2-methyl-8-piperidin-1-yl-quinoline-5,6-dione] showed an IC50 of 38.3 µM. `CCOC(=O)C1=C(Cc2ccc(F)cc2)C(=O)c2ccccc2C1=O` [ethyl 3-(4-fluorobenzyl)-1,4-dioxo-1,4-dihydro-2-naphthalenecarboxylate] showed an IC50 of 25.4 µM. For `NC1=CC(=O)C(=O)c2ccccc21`, the IC50 was 57.8 µM. In the case of `COC(=O)c1ccc(CCc2cc(O)c(Br)cc2O)cc1` [SMR001565911], the IC50 is reported as 23.2 µM. `N#Cc1c(SCC(=O)Nc2nc3ccc(Br)cc3s2)sc2c(O)cc(=O)[nH]c12` [N-(6-bromo-1,3-benzothiazol-2-yl)-2-[(3-cyano-5-hydroxy-7-oxo-4H-thieno[3,2-b]pyridin-2-yl)thio]acetamide] showed an IC50 of 25.9 µM. In the case of `COc1ccc(N2C3=C(CC4=C2CCCC4=O)C(=O)CCC3)cc1` [10-(4-methoxyphenyl)-3,4,6,7,9,10-hexahydro-1,8(2H,5H)-acridinedione], the IC50 is reported as 24 µM. In the case of `COP(=O)(OC)c1ccc(NCc2cc(O)ccc2O)cc1` [MLS002702382], the IC50 is reported as 26.2 µM. Compound `CN(C)c1ccc(Cc2cc3c(O)ccc(O)c3cc(Cc3ccc(N(C)C)cc3)c2=O)cc1` [SMR001565845] has an IC50 of 73.6 µM. `O=S(=O)(Nc1ccc(O)c2ccccc12)c1cccs1` [N-(4-oxidanylnaphthalen-1-yl)thiophene-2-sulfonamide] gave an IC50 of 55.3 µM. In the case of `Cc1ccc(-n2c3nc(=O)[nH]c(=O)c-3cc3cc([N+](=O)[O-])ccc32)cc1C`, the IC50 is reported as 36.6 µM.
